{"source": "patent US20220079962A1", "about": "“NUTRITIONAL COMPOSITION COMPRISING 2'FUCOSYLLACTOSE AND DIETARY BUTYRATE” (N.V. Nutricia, priority 2019, published 2022)", "key": {"[1]": {"system": "infant intestinal microbiota", "assay": "quad-SHIME model of infant intestinal microbiota (SCFA, glycoprofile)", "design": "species or system human; Butyrate (Mean ± SD) / Iso-Butyrate (Mean ± SD) / Acetate (Mean ± SD): unit not given here", "conditions": "distal colon", "excerpt": "A faecal sample from a healthy infant born via C-section, exclusively breastfed with no history of antibiotic usage, was used as inoculum to simulate the infant intestinal microbiota in the colon compartments of a quad-SHIME®—a dynamic model of the human gastrointestinal tract comprises 4 SHIME® units running in parallel and each SHIME® unit is composed of 3 reactors simulating the stomach and small intestine, proximal and distal colons."}, "Bifidobacteria": {"system": "Bifidobacteria", "assay": "Fecal slurry fermentation, CFU of total Bifidobacteria", "description": "A 32 well plate that can handle low pH was used. The wells of this plate were filled with fecal solution. 2.5% (w/v) of the different sterile carbohydrate solutions (3′-GL, 2′-FL, 2′-FL/3′-GL (2.0+0.5%). and Glucose were added to the fecal slurry according to a template.\n(§1) The experiment was started, and pH setpoint was either 5.5 (facial inoculum from infant 1, vaginally born, breast fed) or pH 6.0 (Inoculum from infant 2, vaginally born, breast fed) with continuous pH regulation, and temperature 37° C., humidity 85%, OD control. At 4, 8 and 24 hours a sample is taken for CFU determination on TOS-propionate MUP agar (total Bifidobacteria), XLD agar for Salmonella enteriditis S29, and Simons citrate inositol agar for Klebsiella pneumonia K2 and for SCFA, D- and L Lactate and ammonia analysis. Fecal pellet was used for 16s DNA sequencing. For both inocula the extent of fermentation, as measured by NaOH consumption, i.e. acid production, was highest with the combination of 3′-GU2′-FL, when compared to 3′-GL or 2′-FL alone. The rate of initial acidification was high for 3′-GL and for 3′-GL/2′-FL. […] As the amount of carbohydrates that can be fermented is the same in the reaction vessels, the higher total acidification with the combination is indicative for an unexpected, synergistic effect of the combination of 2′-FL and 3′-GL. The SCFA that were produced was for the largest part acetic acid. Also L-lactic acid was produced."}, "[2]": {"system": "Salmonella enteriditis S29", "assay": "Fecal slurry fermentation spiked with pathogens, Salmonella growth", "description": "(§2) In addition the test legs were supplemented with Clostridium difficile C153 (difficile agar), Salmonella enteriditis S29 (XLD agar), Cronobacter sakasakii E71 (chromogenic agar) or Klebsiella pneumonia K2 (Simons citrate inositol agar). For every NDO and for the control also a pathogen free culture was prepared.\nas §1, with “The SCFA that were produced was for the largest part acetic acid. Also L-lactic acid was produced.” left out"}, "[3]": {"system": "human peripheral blood mononuclear cells (PBMC)", "assay": "PBMC cytokine levels, unstimulated condition", "format": "cell-based", "conditions": "for Relative CCL 20, observed: 0.1 w/v % 3′-GL", "excerpt": "Isolation of PBMC from healthy donors: Human peripheral blood mononuclear cells (PBMC) from healthy donors were isolated from buffy coats (Sanquin, Amsterdam, the Netherlands). PBMC were obtained by centrifugation using Leucosep tubes (Greiner Bio-One). […] After lysis, the PBMC were resuspended in freezing medium (70% RPMI 1640 medium (Gibco, Thermo Fisher Technologies) supplemented with 10% heat-inactivated FCS and 100 U/ml penicillin-streptomycin, 20% heat-inactivated FCS and 10% DMSO (Sigma)) and cryopreserved. PBMC activation model: PBMC (0.2.10^6 cell/well) were cultured in 96-well flat bottom plates (Corning). For 24 hours the cells were pre-incubated with 2'-FL (Jennewein), 3'-GL (0-0.3% w/v; […] Sigma Aldrich) and combinations thereof. Subsequently, the cells were CD3/CD28-activated (Pelicluster CD3 and Pelicluster CD28, Sanquin) for an additional 24 hours. After incubation, IFNγ was measured by ELISA in the supernatants (see below). […] Roche) and/or 10% Triton (5 μl; negative control). […] Cytokine production of PBMC: PBMC were incubated with indicated reagents. After incubation, the supernatants were collected and IL2, IL6, IL10, IL13, IL21, TNFα, IFNγ, MIF, CCL1, CCL13, CCL17, CCL20, CCL22 and CXCL8-11 levels were measured by conducting a validated multiplex immunoassay based on Luminex technology (xMAP, Luminex Austin Tex. USA). Acquisition was conducted with the Biorad […] (Biorad laboratories, Hercules USA) in combination with xPONENT software version 4.2 (Luminex). Data was analyzed by 5-parametric curve fitting using Bio-Plex Manager software, version 6.1.1 (Biorad). After PBMC stimulation, cell culture supernatants were collected, after which cytokine responses were measured in order to test immune responsiveness of the cells. The levels of cytokines measured in stimulated conditions were corrected for the (low) levels of the cytokines measured in non-stimulated conditions. In addition, since each donor is reacting in its own efficiency onto the T cell stimulus, we calculated the individual index of cytokine response by dividing the intervention induced response by the basal stimulated response."}, "[4]": {"system": "fecal slurry microbiota of breast fed infants", "assay": "Anaerobic fermentation of infant fecal slurry (BioLector Pro), acidification", "design": "species or system human", "conditions": "no pathogen spiking", "description": "Anaerobic fermentation of fecal slurry samples was tested in a BioLector Pro microfluidics mini multifermentor. Fecal slurry samples were collected from breast fed infants and from formula fed infants. These fecal slurry samples were processed by adding 0.6 grams feces in 40 ml Baby Reichardt V.6 medium+mucus+Ammonium sulfate+lactate and acetate. The resulting solutions were inserted to the BioLector Pro microfluidics mini multifermentor. The test legs were supplemented with 3-GL, 2′-FL, 3-GL+2′-FL, and GOS/FOS. The control leg was supplemented with sterile water.\nAfter fermentation the fermented solutions were tested for SCFA content (in particular acetic acid, propionic acid, butyric acid and isobutyric acid), ammonia content, lactate content and pathogen concentration. Also DNA-isolation+identification and 16s sequencing was performed to determine the composition of the microbiota.\nA 32 well plate that can handle low pH was used. […]\nThe experiment was started, and pH setpoint was either 5.5 (facial inoculum from infant 1, vaginally born, breast fed) or pH 6.0 (Inoculum from infant 2, vaginally born, breast fed) with continuous pH regulation, and temperature 37° C., humidity 85%, OD control. […] For both inocula the extent of fermentation, as measured by NaOH consumption, i.e. acid production, was highest with the combination of 3′-GU2′-FL, when compared to 3′-GL or 2′-FL alone. […]"}, "Klebsiella pneumonia K2": {"system": "Klebsiella pneumonia K2", "assay": "Fecal slurry fermentation spiked with pathogens, Klebsiella growth", "conditions": "inoculum of baby 2", "description": "as §2\nas §1, with “The SCFA that were produced was for the largest part acetic acid. Also L-lactic acid was produced.” left out"}, "[5]": {"conditions": "unstimulated, relative to blanc (=1), 0.2% w/v 2′-FL, 0.2 mM butyrate, mean"}}, "data": [{"compound": "C[C@@H]1O[C@@H](O[C@H]2[C@H](O[C@H]3[C@H](O)[C@@H](O)C(O)O[C@@H]3CO)O[C@H](CO)[C@H](O)[C@@H]2O)[C@@H](O)[C@H](O)[C@@H]1O", "note": "(stereo partly drawn) [2′-FL, α-L-Fuc-(1→2)-β-D-Gal-(1→4)-D-Glc]", "values": [{"measurement": "butyrate generation relative to the control and the scGOS/IcFOS groups", "setting": "[1]", "value": "generated earlier in the distal colon and at a higher concentration"}, {"measurement": "Acetate (Mean ± SD)", "setting": "[1]; D 1-D 3", "value": "38.67 ± 10.25"}, {"measurement": "Butyrate (Mean ± SD)", "setting": "[1]; D 1-D 3", "value": "0 ± 0"}, {"measurement": "Iso-Butyrate (Mean ± SD)", "setting": "[1]; D 1-D 3", "value": "0 ± 0"}, {"measurement": "Propionate (Mean ± SD)", "setting": "[1]; D 1-D 3", "value": "10.17 ± 3.01"}, {"measurement": "Acetate (Mean ± SD)", "setting": "[1]; D 4-D 11", "value": "26.22 ± 0.97"}, {"measurement": "Butyrate (Mean ± SD)", "setting": "[1]; D 4-D 11", "value": "0.74 ± 0.49"}, {"measurement": "Iso-Butyrate (Mean ± SD)", "setting": "[1]; D 4-D 11", "value": "0.68 ± 0.75"}, {"measurement": "Propionate (Mean ± SD)", "setting": "[1]; D 4-D 11", "value": "6.58 ± 0.49"}, {"measurement": "Acetate (Mean ± SD)", "setting": "[1]; D 12-D 15", "value": "22.96 ± 1.04"}, {"measurement": "Butyrate (Mean ± SD)", "setting": "[1]; D 12-D 15", "value": "0.99 ± 0.09"}, {"measurement": "Iso-Butyrate (Mean ± SD)", "setting": "[1]; D 12-D 15", "value": "0.93 ± 0.21"}, {"measurement": "Propionate (Mean ± SD)", "setting": "[1]; D 12-D 15", "value": "6.13 ± 0.63"}, {"measurement": "Growth of bifidobacteria", "setting": "Bifidobacteria", "value": "Growth of bifidobacteria was observed"}, {"measurement": "Salmonella growth", "setting": "[2]; inoculum of baby 1", "value": "most restricted"}, {"measurement": "Salmonella growth", "setting": "[2]; inoculum of baby 2", "value": "most restricted"}, {"measurement": "IL10 level compared to blanc control", "setting": "[3]; 0.2% 2′-FL, 0.2 mM butyrate", "value": "significantly (p<0.05) increased level of IL10"}, {"measurement": "CCL20 level compared to blanc control", "setting": "[3]; unstimulated", "value": "increased level of CCL20"}, {"measurement": "Relative IL10 level, observed", "setting": "[3]; unstimulated, relative to blanc (=1), 0.2% w/v 2′-FL, 0.2 mM butyrate, mean, 10 donors", "value": 3.361}, {"measurement": "Relative CCL 20, observed", "setting": "[3]; [5]", "value": 2.586}, {"measurement": "extent of fermentation, as measured by NaOH consumption, i.e. acid production", "setting": "[4]; both inocula, 2.5% (w/v) carbohydrate", "value": "slower and lower acidification"}]}, {"compound": "Gal (beta 1-3)-Gal (beta 1-4)-Glc [3′-GL]", "values": [{"measurement": "Growth of bifidobacteria", "setting": "Bifidobacteria", "value": "Growth of bifidobacteria was observed"}, {"measurement": "effect on bifidobacteria", "setting": "Bifidobacteria; inoculum of baby 2", "value": "highest"}, {"measurement": "CCL20 level compared to blanc control", "setting": "[3]; unstimulated", "value": "did not have a statistically significant effect"}, {"measurement": "Relative CCL 20, observed", "setting": "[3]; [5]", "value": 1.164}, {"measurement": "Klebsiella growth", "setting": "Klebsiella pneumonia K2", "value": "most inhibited"}, {"measurement": "rate of initial acidification", "setting": "[4]", "value": "high"}]}]}
